Read-outs that look alike come from different tables or passages of the source.
Experiments:
[1] = system: NCI-H1299 (H1299) carcinoma
Method: Two antitumor compounds were formulated for an i.v. dosing regime prepared in the following vehicle: 10% ethanol, 10% Cremophor and 80% isotonic saline. […] Other compounds were formulated similarly.
The MTDs for the antitumor compounds were calculated from earlier single dose data for mice receiving i.v. administration of these compounds. […] Vehicle control animals were dosed twice intravenously with half the total volume being given separated by one hour. The study was terminated at Day 60.
The results are summarized in Table 1 and include mean days of survival (MDS), number of toxic deaths, number of survivors, number of complete or partial responses, and number with stable disease. The mean days of survival is the number of days after which a neoplasm reached a size of 1.5 g and the animal was euthanized. A complete response is obtained if the tumor is not palpable at the end of the study. A partial response is obtained if the tumor shrinks to a size smaller than its size on Day 1 of the study.
A tumor scoring system was designed to provide a more quantitative ranking of efficacy (therapeutic potential) among the antitumor agents evaluated against the different human solid tumor xenografts. Each mouse in a study was given a score of from 1 to 10 at the end of the study. The scores can be summarized as follows:
The individual score for each mouse was averaged into a mean score for each treatment group. […]
The treatment protocol for the H1299 test was identical to the SK-MES test protocol. […]

[2] = system: SKMES Human Lung Carcinoma Xenograft
Method: The antitumor compound was prepared in the following vehicle: 10% ethanol and 90% Liposyn III.
Female Nu/Nu mice (6-8 weeks of age; implanted with 1 mm^3 SKMES lung carcinoma fragments in the flank) were sorted into treatment groups of six mice each. SKMES size ranges and group mean SKMES size ranges were 126-448 mg and 238-241 mg, respectively. […] Treatments were administered as a single i.v. bolus on Day 1, and the study was terminated on Day 60.
The mean days of survival is the number of days after which a SKMES neoplasm reached a size of 2.0 g and the animal was euthanized. A complete response is obtained if the tumor is not palpable at the end of the study. A partial response is obtained if the tumor shrinks to a size smaller than its size on Day 1 of the study.

[3] = system: MX-1 Human Breast Carcinoma Xenograft; assay: In vivo evaluation of oral administration of antitumor compounds against MX-1 human breast carcinoma xenograft (Example 25)
Excerpt: This study investigated the efficacy of various antitumor compounds when administered orally against the MX-1 human breast carcinoma xenograft.
(§1) The study was terminated on Day 63.

[4] = system: blood cell populations; assay: Effect of oral treatment on blood cell populations, body weight and tumor weight in MX-1 bearing mice (Example 25, Table 23); format: in vivo, nu/nu mice; conditions: 107 mg/kg single oral bolus
Method: as §1
In addition to survival and tumor regression responses, the effect of treatment on blood cell populations was assessed. The major effect of these antitumor compounds on blood cell populations was a marked reduction in the neutrophil cell number. As well, monocyte depletion correlated fairly well with neutrophil reduction for each antitumor compound. […] There was a correlation between antitumor activity and reduced neutrophil count. In general, toxicity (as determined by neutrophil depletion) and weight loss correlated with efficacy. Importantly, the toxicities observed with the very efficacious antitumor compounds were manageable and reversible; neutrophil count and body weight rebounded from their low points in just a few days. Table 23 summarizes the weight reduction, neutrophil and monocyte measurements on Day 4, with tumor weight reduction calculated at Day 18: Table 23

[5] = i.v. split dose qd x 1 at MTD (Taxol 36 mg/kg, 1393 72.1 mg/kg), 6 mice/group, Day 60
[6] = 15 mg/kg single i.v. bolus Day 1, 6 mice/group, study end Day 60
[7] = 62 mg/kg single i.v. bolus Day 1, 6 mice/group, study end Day 60
[8] = 108 mg/kg single i.v. bolus Day 1, 6 mice/group, study end Day 60
[9] = 154 mg/kg single i.v. bolus Day 1, 6 mice/group, study end Day 60
[10] = 107 mg/kg single oral bolus, 6 mice/group, study end Day 63

CC(=O)O[C@H]1C(=O)[C@@]2(C)[C@H]([C@H](OC(=O)c3ccccc3)[C@]3(O)C[C@H](OC(=O)[C@H](O)[C@@H](NC(=O)c4ccccc4)c4ccccc4)C(C)=C1C3(C)C)[C@]1(OC(C)=O)CO[C@@H]1C[C@@H]2O [Taxol, paclitaxel, reference compound]
survival extension compared to vehicle-treated animals ([1]; Taxol 36 mg/kg i.v.): 10%
MDS (n) ([1]; i.v. split dose qd x 1 at MTD (Taxol 36 mg/kg, 1393 72.1 mg/kg), 6 mice/group, 1.5 g cut-off, Day 60): 27.0 ± 4.6 (5) days
Complete Response [1, 5]: 0
Stable Disease [1, 5]: 0
Survivors [1, 5]: 1
Toxic Deaths [1, 5]: 0
Mean Score ([1]; i.v. split dose qd x 1 at MTD (Taxol 36 mg/kg, 1393 72.1 mg/kg), tumor score 1 to 10 per mouse, group mean): 2.7 ± 1.3

CCC(=O)OC1CC2OCC2(OC(C)=O)C2C(OC(=O)c3ccccc3)C3(O)CC(OC(=O)C(O)C(NC(=O)OC(C)(C)C)c4ccco4)C(C)=C(C(O)C(=O)C12C)C3(C)C (stereo not shown) [Compound 1393, 3'-Desphenyl-3'-(2-furyl)-7-propionyl taxotere]
Survivors [1, 5]: 4

CCC(=O)O[C@H]1C[C@H]2OC[C@@]2(OC(C)=O)[C@H]2[C@H](OC(=O)c3ccccc3)[C@]3(O)C[C@H](OC(=O)[C@H](O)[C@@H](NC(=O)OC(C)(C)C)c4cccs4)C(C)=C([C@@H](O)C(=O)[C@]12C)C3(C)C [Compound 1418]
Survivors [2, 6]: 0
Toxic Deaths [2, 6]: 0
Survivors [2, 7]: 0
Toxic Deaths [2, 7]: 0
MDS (n) ([2]; 62 mg/kg single i.v. bolus Day 1, 6 mice/group, study end Day 60, days until tumor reached 2.0 g): 35.3 ± 3.3 (6) days
Survivors [2, 8]: 3
Toxic Deaths [2, 8]: 0
Survivors [2, 9]: 5
Toxic Deaths [2, 9]: 0
MDS ([2]; SKMES, 1418 single i.v. bolus 62 mg/kg (Group 4), 2.0 g cut-off): 35.3 days
% Total Response ([2]; iv, 15 mg/kg): 0%
Complete Responses ([2]; iv, 15 mg/kg): 0
MDS (n) ([2]; iv, 15 mg/kg): 21.2 ± 2.9 (6) days
Partial Responses ([2]; iv, 15 mg/kg): 0
% Total Response ([2]; iv, 62 mg/kg): 0%
Complete Responses ([2]; iv, 62 mg/kg): 0
Partial Responses ([2]; iv, 62 mg/kg): 0
% Total Response ([2]; iv, 108 mg/kg): 50.0%
Complete Responses ([2]; iv, 108 mg/kg): 1
MDS (n) ([2]; iv, 108 mg/kg): 40.6 ± 2.9 (3) days
Partial Responses ([2]; iv, 108 mg/kg): 2
% Total Response ([2]; iv, 154 mg/kg): 83.3%
Complete Responses ([2]; iv, 154 mg/kg): 5
Partial Responses ([2]; iv, 154 mg/kg): 0

CCC(=O)O[C@H]1C[C@H]2OC[C@@]2(OC(C)=O)[C@H]2[C@H](OC(=O)c3ccccc3)[C@]3(O)C[C@H](OC(=O)[C@H](O)[C@H](C=C(C)C)NC(=O)OC(C)(C)C)C(C)=C([C@@H](O)C(=O)[C@]12C)C3(C)C [Compound 1351]
Maximum Weight Loss (Day) ([3]; 107 mg/kg single oral bolus, 6 mice/group, on Day 5): -9.1% (5)
Partial Response [3, 10]: 0
Stable Disease [3, 10]: 1
Toxic Deaths [3, 10]: 0
Mean Day of Survival (n) ([3]; 107 mg/kg single oral bolus, 6 mice/group, study end Day 63, days until tumor reached 1.5 g): 46.2 ± 5.1 (5) days
survival compared to vehicle control mice ([3]; MX-1, single oral bolus, doses of Table 22, Day 63): significant survival extensions
Complete Response ([3]; po, 107 mg/kg, 1512 h): 0
Monocytes (K/µL) ([4]; Day 4): 0.088 K/µL
Neutrophils (K/µL) ([4]; Day 4): 0.408 K/µL
% Reduction ([4]; reduction of monocytes, Day 4): 8.3%
% Reduction ([4]; reduction of neutrophils, Day 4): 55.2%
% Reduction ([4]; reduction of tumor weight at Day 18): 85.9%
Weight ([4]; tumor weight at Day 18): 122.1 mg

CCC(=O)O[C@H]1C[C@H]2OC[C@@]2(OC(C)=O)[C@H]2[C@H](OC(=O)c3ccccc3)[C@]3(O)C[C@H](OC(=O)[C@H](O)[C@@H](NC(=O)OC(C)(C)C)c4ccco4)C(C)=C([C@@H](O)C(=O)[C@]12C)C3(C)C [Compound 1393, 3'-Desphenyl-3'-(2-furyl)-7-propionyl taxotere]
Toxic Deaths [1, 5]: 2

Source: patent publication EP1285918A1, “C7 Ester substituted taxanes as antitumor agents” (Florida State University Research Foundation, Inc., priority 2001, dated 2003)
